Laboratory results from the supplement of paper PMC11451515.

System: NOMO1
Assay: cell viability relative to DMSO control; higher = less cytotoxic
Conditions: 48 h
Procedure, shortened: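 NOMO1, SEM and P12-Ichikawa leukemia cells spent at least four passages adapting to each medium before use. They were seeded at 500 cells/well (NOMO1, SEM) or 1000 cells/well (P12-Ichikawa) in 5 μl in 1536-well plates and pin-dosed with library compounds in DMSO at 11 threefold steps from 47 μM down to 0.79 nM. After 48 h at 37°C, CellTiter-Glo One luminescence was read. Viability is reported as a percentage of the DMSO wells on each plate, with cell-free wells as background.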

[1] = HPLM + 10% dialyzed FBS, 0.000781 µM
[2] = HPLM + 10% dialyzed FBS, 0.00234 µM
[3] = HPLM + 10% dialyzed FBS, 0.00702 µM
[4] = HPLM + 10% dialyzed FBS, 0.0211 µM
[5] = HPLM + 10% dialyzed FBS, 0.0632 µM
[6] = HPLM + 10% dialyzed FBS, 0.19 µM
[7] = HPLM + 10% dialyzed FBS, 0.569 µM
[8] = HPLM + 10% dialyzed FBS, 1.71 µM
[9] = HPLM + 10% dialyzed FBS, 5.12 µM
[10] = HPLM + 10% dialyzed FBS, 15.4 µM
[11] = HPLM + 10% dialyzed FBS, 46.1 µM
[12] = RPMI 5 mM glucose + 10% FBS, 0.000781 µM
[13] = RPMI 5 mM glucose + 10% FBS, 0.00234 µM
[14] = RPMI 5 mM glucose + 10% FBS, 0.00702 µM
[15] = RPMI 5 mM glucose + 10% FBS, 0.0211 µM
[16] = RPMI 5 mM glucose + 10% FBS, 0.0632 µM
[17] = RPMI 5 mM glucose + 10% FBS, 0.19 µM
[18] = RPMI 5 mM glucose + 10% FBS, 0.569 µM
[19] = RPMI 5 mM glucose + 10% FBS, 1.71 µM
[20] = RPMI 5 mM glucose + 10% FBS, 5.12 µM
[21] = RPMI 5 mM glucose + 10% FBS, 15.4 µM
[22] = RPMI 5 mM glucose + 10% FBS, 46.1 µM
[23] = RPMI 5 mM glucose + 10% dialyzed FBS, 0.000781 µM
[24] = RPMI 5 mM glucose + 10% dialyzed FBS, 0.00234 µM
[25] = RPMI 5 mM glucose + 10% dialyzed FBS, 0.00702 µM
[26] = RPMI 5 mM glucose + 10% dialyzed FBS, 0.0211 µM
[27] = RPMI 5 mM glucose + 10% dialyzed FBS, 0.0632 µM
[28] = RPMI 5 mM glucose + 10% dialyzed FBS, 0.19 µM
[29] = RPMI 5 mM glucose + 10% dialyzed FBS, 0.569 µM
[30] = RPMI 5 mM glucose + 10% dialyzed FBS, 1.71 µM
[31] = RPMI 5 mM glucose + 10% dialyzed FBS, 5.12 µM
[32] = RPMI 5 mM glucose + 10% dialyzed FBS, 15.4 µM
[33] = RPMI 5 mM glucose + 10% dialyzed FBS, 46.1 µM

SMILES	cell viability [1] [%]	cell viability [2] [%]	cell viability [3] [%]	cell viability [4] [%]	cell viability [5] [%]	cell viability [6] [%]	cell viability [7] [%]	cell viability [8] [%]	cell viability [9] [%]	cell viability [10] [%]	cell viability [11] [%]	cell viability [12] [%]	cell viability [13] [%]	cell viability [14] [%]	cell viability [15] [%]	cell viability [16] [%]	cell viability [17] [%]	cell viability [18] [%]	cell viability [19] [%]	cell viability [20] [%]	cell viability [21] [%]	cell viability [22] [%]	cell viability [23] [%]	cell viability [24] [%]	cell viability [25] [%]	cell viability [26] [%]	cell viability [27] [%]	cell viability [28] [%]	cell viability [29] [%]	cell viability [30] [%]	cell viability [31] [%]	cell viability [32] [%]	cell viability [33] [%]
COc1nccc(-c2c(-c3ccc(F)cc3)ncn2C2CCNCC2)n1	95.7	121	124	127	120	121	119	94.4	107	78.3	49.4	45.8	120	115	101	113	107	100	112	96.7	97.6	74	44.9	119	97.3	110	106	104	108	104	101	99.1	68
CO[C@H]1/C=C/O[C@@]2(C)Oc3c(C)c(O)c4c(O)c(c5c(nc6cc(C)ccn65)c4c3C2=O)NC(=O)/C(C)=C\C=C\[C@H](C)[C@H](O)[C@@H](C)[C@@H](O)[C@@H](C)[C@H](OC(C)=O)[C@@H]1C	104	119	112	96.1	116	110	96	93.8	35.5	91.7	11.1	107	99.1	97.7	110	82.7	105	87.6	98.7	43.8	91.4	44.9	99.4	97.8	95.3	108	86.3	108	99.9	99.7	28.9	82.3	18.6
c1cncc(CN2CCC(n3ncc4c(N5CCOCC5)nc(-c5ccc6[nH]ccc6c5)nc43)CC2)c1	92.1	107	92.5	94.8	84.4	89.1	78.6	72.7	60.1	44	35	88.4	80.4	88.1	92.7	87.8	82.2	83.6	82.8	80.5	49.3	15.7	87.3	83.9	96.4	97.7	86.2	85.2	69.2	70.4	71.2	46.6	20
CC(=O)Oc1ccccc1C(=O)O	106	107	104	105	115	107	107	99.2	88	98.9	103	93.8	95.9	92.9	88.4	97.9	87.4	95.2	106	88.3	101	90.4	97.7	104	106	109	110	93.4	91.8	105	88.4	94.9	96.6
Cl.Cl.Cl.O[C@@H](COc1cccc2ncccc12)CN1CCN([C@@H]2c3ccccc3[C@@H]3[C@H](c4ccccc42)C3(F)F)CC1	79.7	84.8	75.8	89.4	94.7	102	93.8	76.5	94.6	70.8	68.6	79.7	78.4	75.8	91.7	97	84.5	89.8	87.9	81	76.2	74.2	98.6	83.8	87.2	79.5	81	92.4	73.5	84.2	86.2	78.2	87
COC1=CC=CC2=C1C(=NC(=N2)C3=CC=CS3)NN4C(=O)\C=C(C)/C4=O	95.7	103	94	87.7	77.6	60.3	44.1	38.2	8.17	1.91	2.25	90	88.4	92.9	84.8	92.3	78.2	56.2	48.2	14.4	3.32	4.06	81.1	85.3	94.5	82.4	74.6	68.8	50.4	38.9	16.9	4.27	2.63
CC(=O)N(C)c1cccc(-c2ccnc3c(C(=O)c4cccs4)cnn23)c1	110	107	110	77.7	99.4	94.8	104	119	97.5	113	95.2	95.6	104	100	92.6	99.5	104	98	100	102	94.5	90.1	92.8	103	87.2	73.7	97.9	89	99.4	87.2	95.6	99.6	82.2
CC(C)n1nc(-c2cc3cc(O)ccc3[nH]2)c2c(N)ncnc21	79	124	110	107	99.7	94.7	65.7	61.6	44.7	31.2	27	96.2	113	104	105	104	96.6	88.1	90.2	71.8	44.1	23	111	110	100	101	101	90.9	76.7	78	54.2	34.1	14.1
